# Assay results from patent US9694016B2 (Novartis AG, priority 2013, dated 2017).
# Read-outs that look alike come from different tables or passages of the source.
# Experiments:
# b-Raf (V600E) [1] = target: T1, b-Raf (V600E) (Homo sapiens (Human), UniProt P15056, V600E); assay: biochemical
# b-Raf (V600E) [2] = target: T1, b-Raf (V600E); conditions: read-out: b-Raf IC-50, AlphaScreen
# [3] = target: C-Raf TR (truncated C-Raf protein, Δ1-324 deletion mutant) (Homo sapiens (Human), UniProt P04049); format: biochemical; conditions: truncated C-Raf approximately 4 nM, ATP 1 uM, 60 min pre-incubation, 1 hour reaction
# Experimental: biotinylated Mek, kinase dead
# biotinylated Mek, Kinase dead approximately 10 nM
# [4] = 60 min pre-incubation, reaction 3 hours at room temperature
# T1 sequence (P15056 whole entry V600E): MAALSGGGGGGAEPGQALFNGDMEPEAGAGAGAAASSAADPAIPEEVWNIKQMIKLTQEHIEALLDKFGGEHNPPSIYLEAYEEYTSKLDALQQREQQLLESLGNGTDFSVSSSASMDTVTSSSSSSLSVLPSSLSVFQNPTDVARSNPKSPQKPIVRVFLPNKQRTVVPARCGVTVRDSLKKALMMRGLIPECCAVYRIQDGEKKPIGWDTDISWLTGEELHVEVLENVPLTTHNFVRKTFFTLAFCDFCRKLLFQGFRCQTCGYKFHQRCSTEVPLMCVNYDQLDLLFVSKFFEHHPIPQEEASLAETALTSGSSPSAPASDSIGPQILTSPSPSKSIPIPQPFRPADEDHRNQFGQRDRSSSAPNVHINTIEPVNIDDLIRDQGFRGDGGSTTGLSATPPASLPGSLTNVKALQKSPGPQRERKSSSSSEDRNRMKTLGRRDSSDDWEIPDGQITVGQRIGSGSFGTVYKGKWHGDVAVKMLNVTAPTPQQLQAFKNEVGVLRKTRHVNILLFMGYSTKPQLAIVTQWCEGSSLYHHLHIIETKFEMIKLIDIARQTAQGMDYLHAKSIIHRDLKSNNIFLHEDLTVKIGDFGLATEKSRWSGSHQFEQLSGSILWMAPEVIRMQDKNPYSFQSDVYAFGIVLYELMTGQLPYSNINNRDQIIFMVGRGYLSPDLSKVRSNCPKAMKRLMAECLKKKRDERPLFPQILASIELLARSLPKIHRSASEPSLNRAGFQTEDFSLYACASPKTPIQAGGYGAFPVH
IC50 (b-Raf (V600E) [1]),Compound,further results
100 nM,"Cc1ccc(NC(=O)c2cn(C)nc2C)cc1-c1cc2[nH]cnc2c(N2CCOCC2)n1 [Example 815, 1,3-dimethyl-N-(4-methyl-3-(4-morpholino-1H-imidazo[4,5-c]pyridin-6-yl)phenyl)-1H-pyrazole-4-carboxamide]",
4 nM,"CCNc1nc(-c2cc(C(=O)Nc3cccc(C(F)(F)F)c3)ccc2C)cc(N2CCOCC2)n1 [Example 710, 3-(2-(ethylamino)-6-morpholinopyrimidin-4-yl)-4-methyl-N-(3-(trifluoromethyl)phenyl)benzamide]",
1.4 nM,"Cc1ccc(NC(=O)c2cc(C3CC3)on2)cc1-c1cc2[nH]cnc2c(N2CCOCC2)n1 [Example 820, 5-cyclopropyl-N-(4-methyl-3-(4-morpholino-1H-imidazo[4,5-c]pyridin-6-yl)phenyl)isoxazole-3-carboxamide]",
18.4 nM,"Cc1ccc(NC(=O)c2cc(C3CC3)nn2C)cc1-c1cc2[nH]cnc2c(N2CCOCC2)n1 [Example 818, 3-cyclopropyl-1-methyl-N-(4-methyl-3-(4-morpholino-1H-imidazo[4,5-c]pyridin-6-yl)phenyl)-1H-pyrazole-5-carboxamide]",
3.1 nM,"Cc1ccc(NC(=O)c2cc(CO)cc(C(F)(F)F)c2)cc1-c1cc(N2CCOCC2)c(=O)n(C)c1 [Example 469, 3-(hydroxymethyl)-N-(4-methyl-3-(1-methyl-5-morpholino-6-oxo-1,6-dihydropyridin-3-yl)phenyl)-5-(trifluoromethyl)benzamide]",
1 nM,"Cc1ccc(NC(=O)c2ccnc(C(C)(F)F)c2)cc1-c1cc(N2CCOCC2)n(C)c(=O)c1 [Example 471, 2-(1,1-difluoroethyl)-N-(4-methyl-3-(1-methyl-6-morpholino-2-oxo-1,2-dihydropyridin-4-yl)phenyl)isonicotinamide]",
,"Cc1ccc(C(=O)Nc2cccc(C(F)(F)F)c2)cc1-c1ccnc(N2CCOCC2)c1 [Example 63, 4-Methyl-3-(2-morpholinopyridin-4-yl)-N-(3-(trifluoromethyl)phenyl)benzamide]","IC50 (b-Raf (V600E) [2]; Table 2, 3 hours reaction): 2.1 nM; IC50 [3]: 0.508 nM"
,"Cc1ccc(C(=O)Nc2cccc(C(F)(F)F)c2)cc1-c1nc(N2CCOCC2)cc(N2CCOCC2)n1 [Example 14, 3-(4,6-dimorpholinopyrimidin-2-yl)-4-methyl-N-(3-(trifluoromethyl)phenyl)benzamide]",IC50 [3]: 0.803 nM
,"Cc1ccc(NC(=O)c2cccc(C(F)(F)F)c2)cc1-c1csc(N2CCOCC2)n1 [Example 199, N-(4-methyl-3-(2-morpholinothiazol-4-yl)phenyl)-3-(trifluoromethyl)benzamide]","IC50 (b-Raf (V600E) [2]; Table 2, 3 hours reaction): 3.6 nM; IC50 [3]: 1.29 nM"
0.9 nM,"CCOc1nnc(-c2cc(NC(=O)c3cccc(S(C)(=O)=O)c3)ccc2C)cc1N1CCOCC1 [Example 559, N-(3-(6-ethoxy-5-morpholinopyridazin-3-yl)-4-methylphenyl)-3-(methylsulfonyl)benzamide]",
9.4 nM,"Cc1ccc(NC(=O)c2ccnc(C(C)(C)O)c2)cc1-c1cc2[nH]cnc2c(N2CCOCC2)n1 [Example 823, 2(2-hydroxypropan-2-yl)-N-(4-methyl-3-(4-morpholino-1H-imidazo[4,5-c]pyridin-6-yl)phenyl)isonicotinamide]",
0.6 nM,"Cc1ccc(NC(=O)c2cccc(C(F)(F)F)c2)cc1-c1nc2c(c(N3CCOCC3)n1)CCNC2 [Example 834, N-(4-methyl-3-(4-morpholino-5,6,7,8-tetrahydropyrido[3,4-d]pyrimidin-2-yl)phenyl)-3-(trifluoromethyl)benzamide]",
1.3 nM,"Cc1ccc(NC(=O)c2ccnc(C(C)(C)C#N)c2)cc1-c1cc(N2CCOCC2)c(OC(C)C)nn1 [Example 596, 2-(2-cyanopropan-2-yl)-N-(3-(6-isopropoxy-5-morpholinopyridazin-3-yl)-4-methylphenyl)isonicotinamide]",
1.49 nM,"Cc1ncc(NC(=O)c2cccc(C(F)(F)F)c2)cc1-c1cnc(OC[C@H](C)O)c(N2CCOCC2)c1 [Example 1022, (S)—N-(6′-(2-hydroxypropoxy)-2-methyl-5′-morpholino-[3,3′-bipyridin]-5-yl)-3-(trifluoromethyl)benzamide]",
0.62 nM,"Cc1ccc(NC(=O)c2ccnc(C(C)(F)F)c2)cc1-c1ccnc(N2CCOCC2)c1 [Example 1137, 2-(1,1-difluoroethyl)-N-(4-methyl-3-(2-morpholinopyridin-4-yl)phenyl)isonicotinamide]",
3.7 nM,"Cc1ncc(NC(=O)c2cccc(C(F)(F)F)c2)cc1-c1cc(N2CCOCC2)nc(NC[C@@H](C)O)n1 [Example 743, (R)—N-(5-(2-((2-hydroxypropyl)amino)-6-morpholinopyrimidin-4-yl)-6-methylpyridin-3-yl)-3-(trifluoromethyl)benzamide]",
17.4 nM,"Cc1ccc(NC(=O)c2cn(C(C)C)nc2C)cc1-c1cc2[nH]cnc2c(N2CCOCC2)n1 [Example 816, 1-isopropyl-3-methyl-N-(4-methyl-3-(4-morpholino-1H-imidazo[4,5-c]pyridin-6-yl)phenyl)-1H-pyrazole-4-carboxamide]",
200 nM,"Cc1cc(C(=O)Nc2ccc(C)c(-c3cc4[nH]cnc4c(N4CCOCC4)n3)c2)n(C)n1 [Example 817, 1,3-dimethyl-N-(4-methyl-3-(4-morpholino-1H-imidazo[4,5-c]pyridin-6-yl)phenyl)-1H-pyrazole-5-carboxamide]",
3.7 nM,"Cc1ccc(NC(=O)c2ccc(CO)c(C(F)(F)F)c2)cc1-c1cc(N2CCOCC2)c(=O)n(C)c1 [Example 462, 4-(hydroxymethyl)-N-(4-methyl-3-(1-methyl-5-morpholino-6-oxo-1,6-dihydropyridin-3-yl)phenyl)-3-(trifluoromethyl)benzamide]",
0.6 nM,"Cc1ccc(NC(=O)c2cnnc(C(F)(F)F)c2)cc1-c1cc(N2CCOCC2)c(OC2CCOCC2)nn1 [Example 577, N-(4-methyl-3-(5-morpholino-6-((tetrahydro-2H-pyran-4-yl)oxy)pyridazin-3-yl)phenyl)-6-(trifluoromethyl)pyridazine-4-carboxamide]",
7.7 nM,"Cc1ccc(NC(=O)c2cccc(-c3nnco3)c2)cc1-c1cc2[nH]cnc2c(N2CCOCC2)n1 [Example 822, N-(4-methyl-3-(4-morpholino-1H-imidazo[4,5-c]pyridin-6-yl)phenyl)-3-(1,3,4-oxadiazol-2-yl)benzamide]",
2.6 nM,"Cc1ncc(NC(=O)c2cccc(C(F)(F)F)c2)cc1-c1cnc(O[C@H](C)CO)c(N2CCOCC2)c1 [Example 1021, (R)—N-(6′-((1-hydroxypropan-2-yl)oxy)-2-methyl-5′-morpholino-[3,3′-bipyridin]-5-yl)-3-(trifluoromethyl)benzamide]",
,"Cc1ccc(NC(=O)c2cccc(C(F)F)c2)cc1-c1nc2c(c(N3CCOCC3)n1)S(=O)(=O)CC2 [Example 854, 3-(difluoromethyl)-N-(4-methyl-3-(4-morpholino-5,5-dioxido-6,7-dihydrothieno[3,2-d]pyrimidin-2-yl)phenyl)benzamide]",IC50 (b-Raf (V600E) [2]; [4]): 0.8 nM
,"Cc1ccc(NC(=O)c2ccnc(C(F)(F)F)c2)cc1-c1cc(-c2c(C)n[nH]c2C)nc(N2CCOCC2)c1 [Example 1127, N-(3-(2-(3,5-dimethyl-1H-pyrazol-4-yl)-6-morpholinopyridin-4-yl)-4-methylphenyl)-2-(trifluoromethyl)isonicotinamide]",IC50 (b-Raf (V600E) [2]; [4]): 1.48 nM
,"Cc1ncc(NC(=O)c2cccc(C(F)(F)F)c2)cc1-c1cc(N2CCOCC2)c2nccn2c1 [Example 883, N-(6-methyl-5-(8-morpholinoimidazo[1,2-a]pyridin-6-yl)pyridin-3-yl)-3-(trifluoromethyl)benzamide]",IC50 (b-Raf (V600E) [2]; [4]): 1.7 nM
,"Cc1ncc(NC(=O)c2cc(C(C)(C)F)ccn2)cc1-c1cnc(OC2CC3(COC3)C2)c(N2CCOCC2)c1 [Example 968, N-(6′-(2-oxaspiro[3.3]heptan-6-yloxy)-2-methyl-5′-morpholino-[3,3′-bipyridin]-5-yl)-4-(2-fluoropropan-2-yl)picolinamide]",IC50 (b-Raf (V600E) [2]; [4]): 3.72 nM
,"Cc1ncc(NC(=O)c2ccnc(S(C)(=O)=O)c2)cc1-c1cc(NCCO)nc(N2CCOCC2)c1 [Example 1043, N-(2′-((2-hydroxyethyl)amino)-2-methyl-6′-morpholino-[3,4′-bipyridin]-5-yl)-2-(methylsulfonyl)isonicotinamide]",IC50 (b-Raf (V600E) [2]; [4]): 22.8 nM

Compound,IC50 (b-Raf (V600E) [1]),further results
"CNCc1ccc(C(=O)Nc2ccc(C)c(-c3cc(N4CCOCC4)c4nccn4c3)c2)cc1C(F)(F)F [Example 853, N-(4-methyl-3-(8-morpholinoimidazo[1,2-a]pyridin-6-yl)phenyl)-4-((methylamino)methyl)-3-(trifluoromethyl)benzamide]",2.4 nM,
"CCn1cc(C(=O)Nc2ccc(C)c(-c3cc4[nH]cnc4c(N4CCOCC4)n3)c2)c(C)n1 [Example 814, 1-ethyl-3-methyl-N-(4-methyl-3-(4-morpholino-1H-imidazo[4,5-c]pyridin-6-yl)phenyl)-1H-pyrazole-4-carboxamide]",32.1 nM,
"Cc1ccc(C(=O)Nc2ccc(CN)c(C(F)(F)F)c2)cc1-c1cc(N2CCOCC2)c(=O)n(C)c1 [Example 467, N-(4-(aminomethyl)-3-(trifluoromethyl)phenyl)-4-methyl-3-(1-methyl-5-morpholino-6-oxo-1,6-dihydropyridin-3-yl)benzamide]",12.1 nM,
"CCOc1ncc(-c2cc(C(=O)Nc3cccc(C(C)(C)O)c3)ccc2C)cc1N1CCOCC1 [Example 236, 3-(6-ethoxy-5-morpholinopyridin-3-yl)-N-(3-(2-hydroxypropan-2-yl)phenyl)-4-methylbenzamide]",1.6 nM,
"CNCc1ccc(C(=O)Nc2cnc(C)c(-c3cc(N4CCOCC4)c4nccn4c3)c2)cc1C(F)(F)F [Example 885, N-(6-methyl-5-(8-morpholinoimidazo[1,2-a]pyridin-6-yl)pyridin-3-yl)-4-((methylamino)methyl)-3-(trifluoromethyl)benzamide]",12.3 nM,
